One data set can be described thus: physchem. The settings on record: simulated gi fluid. The procedure:
(§1) Evaluation of stability in biological matrix for compositions comprising the prodrug of formula 1.1. Initial compositions comprising the prodrug of formula 1.1 (the tested compounds) were prepared with a concentration of 10 mM in DMSO. From said compositions, 100-fold working solutions were prepared with a concentration of 100 μM in a mixture of acetonitrile: water with a volumetric ratio of 1:1.
The tested composition comprising the prodrug of formula 1.1 in a final concentration of 1 μM was incubated in artificial gastric juice (0.2% NaCl in 0.7% v/v HCl) and artificial intestinal juice (0.05M KH2PO4, pH 6.75). The incubation was performed in a Vortemp56 shaking incubator at 37° C. with stirring at a rate of 300 rev/min. […] The samples were then centrifuged, and the supernatant (150 μl) was sampled for analysis […]. The incubation was performed in two replicates, with each sample measured twice.
Samples were analyzed using an HPLC-MS/MS technique developed for each tested prodrug, wherein the chromatographic system 1290 Infinity II (Agilent Technologies) was combined with the tandem mass spectrometer QTRAP5500 (AB Sciex). When developing conditions for mass-spectrometric detection, the solutions of tested compounds in a mixture of acetonitrile-water (1:1) with a concentration of 100 ng/ml were injected directly into the mass spectrometer using a syringe pump with electrospray ionization carried out in a positive ion mode. Scanning in a total ion current mode (MS1) allowed us to identify a molecular ion for each compound, and basic product ions were recorded in MS2 mode. Then, to attain maximum sensitivity, the MS/MS technique was optimized in MRM mode. In quantitative chromatogram processing, the most intensive MRM transition was used for the analyte and the internal standard. Separation was carried out by means of linear gradient elution chromatography on a YMC Triart C18 column (50×2 mm, 1.9 μm) in a mobile phase consisting of 0.1% formic acid in water and 0.1% formic acid in acetonitrile. Tolbutamide (Fluka) was used as the internal standard.
Half-life (T1/2) was found from the kinetics of tested prodrug elimination in an antiviral composition during incubation in a biological matrix. The computations were based on the values of chromatographic peak areas for compounds in test samples normalized to the internal standard signal. From linear dependence of log normalized areas of chromatographic peaks on time, the constant of elimination rate was calculated (k is linear section slope).

The next data set is described as follows: in vitro. Conditions: human, plasma. The procedure:
as §1
The incubation was performed in a Vortemp56 shaking incubator at 37° C. with stirring at a rate of 300 rev/min. […] The samples were then centrifuged, and the supernatant (150 μl) was sampled for analysis […]. The incubation was performed in two replicates, with each sample measured twice.
Samples were analyzed using an HPLC-MS/MS technique developed for each tested prodrug, wherein the chromatographic system 1290 Infinity II (Agilent Technologies) was combined with the tandem mass spectrometer QTRAP5500 (AB Sciex). […] Scanning in a total ion current mode (MS1) allowed us to identify a molecular ion for each compound, and basic product ions were recorded in MS2 mode. […] In quantitative chromatogram processing, the most intensive MRM transition was used for the analyte and the internal standard. […]

The next data set deals with gT1b NS5B HCV. Conditions: cited from earlier work; for pEC50: from hcvdruginfo.ca.
For data set [1], the system named is Huh7 human hepatocellular carcinoma cell line. Conditions: cited from earlier work.
Data set [2] has as its system six HCV genotypes (gT1-gT6). The settings on record: cited from earlier work.
The conditions of data set [3]: from Sofia et al. J. Med. Chem. 2010, cited from earlier work.
For data set [4] the following is noted: from Sofia et al. J. Med. Chem. 2010, cited from earlier work. This is another data set of the same source.
For data set [5] the following is noted: from Sofia et al. J. Med. Chem. 2010, cited from earlier work. The source holds these as a separate data set.

Data on 2 molecules can be found in patent US20190054109A1, “An antiviral composition and a method for application thereof” (ALLA CHEM, LLC, priority 2017, published 2019).

What is called half-life is the time in which the quantity being followed falls by half. The term EC90 denotes the concentration at which the effect reaches the 90% level. One may read the pEC50 as the EC50 on a negative log10 scale, so that one unit is a factor of ten. Usually CC50 stands for the concentration at which the toxic effect on the cells reaches its halfway point.

pEC50: −log10 of the molar value. Where two headings read alike, the source gives them in different places. Marks after values point to notes of the source that are not given here.

With `C[C@H](N[P@@](=O)(OC[C@H]1O[C@@H](n2ccc(=O)[nH]c2=O)[C@](C)(F)[C@@H]1O)Oc1ccccc1)C(=O)OC1CCC1` [Prodrug 1.2, cyclobutyl (S)-2-((R)-(((2R,3R,4R,5R)-5-(2,4-dioxo-3,4-dihydropyrimidin-1(2H)-yl)-3-hydroxy-4-methyl-4-fluoro-tetrahydrofuran-2-yl)methoxy)-(phenoxy)-phosphorylamino)-propanoate], the half-life at 1 μM in the data set “physchem” (T1/2 SGF, artificial gastric juice, 37° C.) is 12.7 to 15 h; in the data set “physchem” (pH 6.75), above 24 h; in “in vitro”, above 24 h.
`CC(C)OC(=O)[C@H](C)N[P@](=O)(OC[C@H]1O[C@@H](n2ccc(=O)[nH]c2=O)[C@](C)(F)[C@@H]1O)Oc1ccccc1` [Sovaldi®, Sofosbuvir]: the EC90 in the data set with gT1b NS5B HCV (HCV genotype 1b (gT1b)) was 590 nM; in the data set with gT1b NS5B HCV (gT1b HCV, 10% FBS, from Sofia et al. J. Med. Chem. 2010), 520 nM. Moreover, the pEC50 in the data set on gT1b NS5B HCV (HCV genotype 1b (gT1b)) is 6.77 to 7.35; in the data set on gT1b NS5B HCV (gT1b HCV, 10% FBS) it was 6.77 to 7.35. In data set [1] (10% FBS, from Sofia et al. J. Med. Chem. 2010), the CC90 was above 100000 nM. Moreover, the CC50 in data set [1] (Huh7, Table 2 marks the value as from Sofia et al.) was above 100000 nM. The “efficiency in clinical trials” value in data set [2] is recorded as “high efficiency”. Besides, the “T1/2 SGF” value in data set [3] is 12.7 to 15 h; in data set [3] (listed as Sovaldi ®), 22.0* h. Also, the “T1/2 SIF” value in data set [4] is recorded as above 24 h; in data set [4] (listed as Sovaldi ®) it was >24* h. Also, the “T1/2 Human plasma” value in data set [5] is given as above 24 h; in data set [5] (listed as Sovaldi ®) it was >24* h.
